Laboratory results published in patent publication US6040335A, “Therapeutics for thrombocytopenia” (Suntory Limited, priority 1995, dated 2000).

Columns and labels:
Mouse Platelet = Mouse Platelet Increasing Action (platelet count, electrical impedance method); assay type: in vivo, C57BL/6 mice; settings: every 24 hr
Protocol: The measurement of platelet increasing activity can be implemented by the method described in Ishibashi, T. et al, Blood, 74(4):1241-1244, 1989 or modifications thereof. For example, an animal for platelet measurement such as mouse (e.g. C57BL/6 mouse), rat, dog or monkey is administered intraperitoneally with a test drug as dissolved in ethanolic physiological saline or dimethyl sulfoxide (hereunder sometimes referred to as DMSO) at a suitable concentration. The frequency of administration is usually once or twice a day for 5-10 continuous days; a blood sample is taken from the orbital venous plexus several hours after the final administration and the platelet count is determined. Administration may be performed by any methods including oral, intravenous, intramuscular and subcutaneous routes. The interval of administrations, their frequency and the number of days on which the administration is made are also variable with the drug under test. Platelet count can be determined by an electrical impedance method using a multi-channel automatic platelet counter (e.g., COULTER COUNTER Model JT of Coulter Corporation).
C57BL/6 mice (male, 7-week old) were administered intraperitoneally with the following compounds of the invention in 1% DMSO physiological saline or with 1% DMSO physiological saline alone (control) at 24-hr intervals for 5, 7 or 10 continuous days. Blood samples were collected 72-hr after the final administration in the case of 5-day administration, and 4-hr after the final administration in the case of 7 or 10-day administration, and the platelet count was determined by an electrical impedance method.

C57BL/6 mice = experiment: Toxicity Test (intravenous, deaths); assay type: in vivo; settings: 5 mg/kg intravenous
[1] = 0.03 mg/kg i.p., 5 days, blood 72 hr after final administration
[2] = 0.1 mg/kg i.p., 5 days, blood 72 hr after final administration
[3] = 1.0 mg/kg i.p., 5 days, blood 72 hr after final administration

SMILES	Platelet count (Mean ± S.E.) (Mouse Platelet; [1])	Platelet count (Mean ± S.E.) (Mouse Platelet; [2])	Platelet count (Mean ± S.E.) (Mouse Platelet; [3])	Platelet count (Mean ± S.E.) (Mouse Platelet; 0.03 mg/kg i.p., 7 days, blood 4 hr after final administration, control 1070 ± 152)	Platelet count (Mean ± S.E.) (Mouse Platelet; 0.1 mg/kg i.p., 7 days, blood 4 hr after final administration, control 1070 ± 152)	Platelet count (Mean ± S.E.) (Mouse Platelet; 0.1 mg/kg i.p., 10 days, blood 4 hr after final administration, control 985 ± 130)	Platelet count (Mean ± S.E.) (Mouse Platelet; 1.0 mg/kg i.p., 7 days, blood 4 hr after final administration, control 1070 ± 152)	Platelet count (Mean ± S.E.) (Mouse Platelet; 1.0 mg/kg i.p., 10 days, blood 4 hr after final administration, control 985 ± 130)	cases of death (C57BL/6 mice)
CCCCCNCCC(O)(/C=C/C1OC(=O)C=CC1CC)C(CC(O)/C=C\C=C/C1CCCC(O)C1)OP(=O)(O)O (centres unmarked) [Example 12, 6-[3,6-Dihydroxy-10-(3-hydroxycyclohexyl)-3-(2-pentylaminoethyl)-4-(phosphonoxy)-1,7,9-decatrienyl]-5,6-dihydro-5-ethyl-2H-pyran-2-one]	1263 ± 99 × 10^3 /μl	1623 ± 192 × 10^3 /μl	1338 ± 236 × 10^3 /μl						
CCC1C=CC(=O)OC1/C=C/C(O)(CC[N+](C)(C)C)C(CC(O)/C=C\C=C/C1CCCC(O)C1)OP(=O)(O)O (centres unmarked) [Example 23, 6-[3,6-Dihydroxy-10-(3-hydroxycyclohexyl)-4-(phosphonoxy)-3-(2-trimethylammoniumethyl)-1,7,9-decatrienyl]-5,6-dihydro-5-ethyl-2H-pyran-2-one]		1545 ± 294 × 10^3 /μl	1513 ± 425 × 10^3 /μl						
CCC1C=CC(=O)OC1/C=C/C(O)(CCNC1CCCC1)C(CC(O)/C=C\C=C/C1CCCC(O)C1)OP(=O)(O)O (centres unmarked) [Example 13, 6-[3-(2-Cyclopentylaminoethyl)-3,6-dihydroxy-10-(3-hydroxycyclohexyl)-4-(phosphonoxy)-1,7,9-decatrienyl]-5,6-dihydro-5-ethyl-2H-pyran-2-one]	1490 ± 108 × 10^3 /μl	1765 ± 291 × 10^3 /μl	1313 ± 293 × 10^3 /μl						
CCC1C=CC(=O)OC1/C=C/C(O)(CCN(CC)CC)C(CC(O)/C=C\C=C/C1CCCC(O)C1)OP(=O)(O)O (centres unmarked) [Example 7, 6-[3-(2-Diethylaminoethyl)-3,6-dihydroxy-10-(3-hydroxycyclohexyl)-4-(phosphonoxy)-1,7,9-decatrienyl]-5,6-dihydro-5-ethyl-2H-pyran-2-one]	1373 ± 76 × 10^3 /μl	1686 ± 226 × 10^3 /μl	1408 ± 427 × 10^3 /μl						
CCC1C=CC(=O)OC1/C=C/C(O)(CCN(C)C)C(CC(O)/C=C\C=C/C1CCCC(O)C1)OP(=O)(O)O (centres unmarked) [Example 3, 6-[3,6-Dihydroxy-3-(2-dimethylaminoethyl)-10-(3-hydroxycyclohexyl)-4-(phosphonoxy)-1,7,9-decatrienyl]-5,6-dihydro-5-ethyl-2H-pyran-2-one]				1417 ± 159 × 10^3 /μl	1486 ± 314 × 10^3 /μl	1280 ± 260 × 10^3 /μl	1532 ± 137 × 10^3 /μl	1356 ± 156 × 10^3 /μl	no cases of death
CCC1C=CC(=O)OC1/C=C/C(O)(CCNC(C)C)C(CC(O)/C=C\C=C/C1CCCC(O)C1)OP(=O)(O)O (centres unmarked) [Example 9, 6-[3,6-Dihydroxy-10-(3-hydroxycyclohexyl)-3-(2-isopropylaminoethyl)-4-(phosphonoxy)-1,7,9-decatrienyl]-5,6-dihydro-5-ethyl-2H-pyran-2-one]	1433 ± 125 × 10^3 /μl	1818 ± 291 × 10^3 /μl	1465 ± 244 × 10^3 /μl						
CCC1C=CC(=O)OC1/C=C/C(O)(CCN(CCO)CCO)C(CC(O)/C=C\C=C/C1CCCC(O)C1)OP(=O)(O)O (centres unmarked) [Example 20, 6-[3-(2-Diethanolaminoethyl)-3,6-dihydroxy-10-(3-hydroxycyclohexyl)-4-(phosphonoxy)-1,7,9-decatrienyl]-5,6-dihydro-5-ethyl-2H-pyran-2-one]	1154 ± 138 × 10^3 /μl	1325 ± 104 × 10^3 /μl	1498 ± 192 × 10^3 /μl						
C=CCN(CC=C)CCC(O)(/C=C/C1OC(=O)C=CC1CC)C(CC(O)/C=C\C=C/C1CCCC(O)C1)OP(=O)(O)O (centres unmarked) [Example 25, 6-[3-(2-Diallylaminoethyl)-3,6-dihydroxy-10-(3-hydroxycyclohexyl)-4-(phosphonoxy)-1,7,9-decatrienyl]-5,6-dihydro-5-ethyl-2H-pyran-2-one]	1074 ± 182 × 10^3 /μl	1506 ± 209 × 10^3 /μl	1133 ± 170 × 10^3 /μl						
